According to patent US9278925B2, “Substituted 3-(biphenyl-3-yl)-4-hydroxy-8-methoxy-1-azaspiro[4.5]dec-3-en-2-one” (BAYER INTELLECTUAL PROPERTY GMBH, priority 2011, dated 2016):
Read-outs that look alike come from different tables or passages of the source.

Experiments:
[1] = target: human serum albumin (HSA) (Homo sapiens (Human), UniProt P02768); assay: Protein binding to human serum albumin (HSA-Transil); settings: buffer pH 7.4
Description: Assays for Determining Membrane Affinity logMA and Protein Binding to Human Serum Albumin (HSA): Determination of membrane affinity and protein binding to human serum albumin (HSA) was carried out via Transil technology (literature: A. Loidl-Stahlhofen, A. Eckert, T. Hartmann, M. […] Pharm Sci 90, 599-606 (2001)). Transil® (commercially available from Sovicell in Leipzig, Germany) are glass beads (diameter 10-12 μm) coated with a double-layer membrane of phosphatidylcholine (MA-Transil) or covalently attached human serum albumin (HSA-Transil). To determine the logMA and the protein binding constant to HSA, the commercially available TRANSIL Intestinal Absorption & HSA Binding Combined Assay Kit was used. This is a 96-well microtitre plate (96 well-MTP) which is filled with Transil and can be used to determine MA-Transil and HSA-Transil binding of in each case eight active compounds. […] Two wells serve as reference and are only filled with buffer pH 7.4. Five further wells contain MA-Transil in various increasing concentrations, the five remaining wells contain HSA-Transil in various increasing concentrations. To determine binding of an active compound to Transil, the supernatant of the wells with Transil was quantified against the reference solution without Transil via HPLC-MS coupling (HPLC-MS=high performance liquid chromatography/mass spectrometry). This is how the individual steps of the assay were carried out: From the internal substance store, the active compounds were delivered in a 96-well MTP. This plate is referred to as mother plate. […] Warfarin, whose membrane affinity and binding to HSA is known, serves to check whether the measurement is correct. […] Using a Hamilton pipetting robot Microlab STAR, the 96 active compounds from the daughter plate were divided onto 12 Transil plates in total. From each well of the daughter plate, 12 times 20 μl were removed. The concentration of each well of the Transil plate was 0.25 μmol/liter, which corresponds to a dilution of 1 to 10. […] The filled Transil plates were each resuspended for two minutes, then allowed to stand at room temperature for at least two minutes and then centrifuged at 600 rotations per minute for five minutes. The pipetting robot was then used to remove 20 μl of supernatant from each well of the Transil plate and to transfer these to a separate microtitre plate. […] Prior to quantification of the active compounds by HPLC-MS, an optimization has to be carried out for each active compound where by way of a single injection daughter ion and optimum electrical voltages are determined. […] This microtitre plate was measured by HPLC-MS using the software Discovery Quant Optimize from AB Sciex. The three pooled microtitre plates were measured by HPLC-MS using the software Discovery Quant Analyze from AB Sciex. • Sciex Triple Quad 5500 mass spectrometer (from AB Sciex) • PAL Autosampler DLW Option Software: Analyst 1.4 (from AB Sciex) • Discovery Quant Optimize (from AB Sciex) • Discovery Quant Analyze (from AB Sciex) Optimization: […] Column: Poroshell 120 SB-C18 2.7 μm 3×30 mm Injection volume: 2 μl Flow rate: 1 ml/min: […] Evaluation of the HPLC peaks was carried out using Discovery Quant Analyze. The results (logMA and binding constant to HSA Kd) were calculated using an Excel workbook provided by Sovicell.

[2] = Plasma protein binding by equilibrium dialysis; assay type: in vitro ADME
Description: The binding of test substances to plasma proteins is determined by equilibrium dialysis by means of the Ht-dialysis apparatus (96-well) made of Teflon and a semipermeable membrane (regenerated cellulose, MWCO 12-14K). This separates 150 μl each of a plasma side and a buffer side (50 mM phosphate buffer). The test substance is added in 2 concentrations (usually 3 and 0.3 μM) to the plasma side and binds to plasma proteins. The unbound fraction of the test substance passes through the membrane and is distributed on either side until equilibrium is established (after approx. 6-8 h at 37° C.). The substance concentration on the buffer side and the plasma side is determined by LC-MS analysis. For this, both sides are brought by dilution with buffer or plasma to the same matrix (10% plasma) and then precipitated with methanol. The free (unbound) fraction (fu) is calculated from the quotient of the buffer and plasma concentration. Stability tests and recovery tests are run concurrently as controls. In addition, the substance in buffer is dialysed against buffer, to check the nonspecific binding to apparatus and membrane and establishment of equilibrium. Because during incubation the osmotic pressure of the plasma proteins leads to dilution of the plasma (volume shift), this possible error is determined by weighing blank plasma samples and is included in the calculation of fu. Establishment of equilibrium and plasma stability should have a value not lower than 80% and the recovery should be at least 30%. A free fraction of <1% is regarded as high, between 1 and 10% as moderate and >10% as low plasma protein binding.

[3] = human plasma, read-out: fu [%] (human)
[4] = mouse plasma, read-out: fu [%] (mouse)
[5] = rat plasma, read-out: fu [%] (rat)

Sequence of human serum albumin (HSA) (P02768 25-609): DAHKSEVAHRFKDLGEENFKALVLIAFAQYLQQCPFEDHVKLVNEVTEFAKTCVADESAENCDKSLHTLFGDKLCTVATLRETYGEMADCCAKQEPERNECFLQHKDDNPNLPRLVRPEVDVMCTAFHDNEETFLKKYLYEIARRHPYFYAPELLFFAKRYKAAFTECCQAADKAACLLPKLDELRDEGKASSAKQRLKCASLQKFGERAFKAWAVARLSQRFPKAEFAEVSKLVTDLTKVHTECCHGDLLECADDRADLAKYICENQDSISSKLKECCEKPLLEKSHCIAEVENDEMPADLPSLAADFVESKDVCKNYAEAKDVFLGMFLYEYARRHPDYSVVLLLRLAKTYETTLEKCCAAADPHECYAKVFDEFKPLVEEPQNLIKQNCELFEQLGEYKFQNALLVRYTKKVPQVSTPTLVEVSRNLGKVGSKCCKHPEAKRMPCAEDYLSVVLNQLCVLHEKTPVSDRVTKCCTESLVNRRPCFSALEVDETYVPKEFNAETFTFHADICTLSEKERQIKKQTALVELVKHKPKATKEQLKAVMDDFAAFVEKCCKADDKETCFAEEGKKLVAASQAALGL

Row | Compound | Kd [1] | fraction unbound [2, 3] | fraction unbound [2, 4] | fraction unbound [2, 5] | fu [%] (human) [2] | fu [%] (rat) [2] | fu [%] (mouse) ([2]; mouse plasma) | fu ratio mouse/human ([2]; mouse and human, plasma, Table 5)
1 | COC[C@]1(OC)CC[C@@]2(CC1)NC(=O)C(c1cc(-c3ccc(Cl)c(F)c3)ccc1C)=C2O [Example 1-4, (5r,8r)-3-(4′-Chloro-3′-fluoro-4-methylbiphenyl-3-yl)-4-hydroxy-8-methoxy-8-(methoxymethyl)-1-azaspiro[4.5]dec-3-en-2-one] | 2.85 µM | 0.0037 | 0.0217 | 0.0021 |  |  |  | 
2 | CO[C@]1(C(F)(F)F)CC[C@]2(CC1)NC(=O)C(c1cc(-c3ccc(Cl)c(F)c3)ccc1C)=C2O [Example 1-2, (5r,8r)-3-(4′-Chloro-3′-fluoro-4-methylbiphenyl-3-yl)-4-hydroxy-8-methoxy-8-(trifluoromethyl)-1-azaspiro[4.5]dec-3-en-2-one] | 1.79 µM | 0.0026 | 0.014 |  |  |  |  | 
3 | CO[C@]1(C(F)(F)F)CC[C@]2(CC1)NC(=O)C(c1cc(-c3ccc(Cl)cc3)ccc1C)=C2O [Example 1-1, (5r,8r)-3-(4′-Chloro-4-methylbiphenyl-3-yl)-4-hydroxy-8-methoxy-8-(trifluoromethyl)-1-azaspiro[4.5]dec-3-en-2-one] | 1.73 µM | 0.002 | 0.0082 |  |  |  |  | 
4 | COC[C@H]1CC[C@]2(CC1)NC(=O)C(c1cc(-c3ccc(Cl)cc3)ccc1C)=C2O [V.3-b, (5s,8s)-3-(4′-Chloro-4-methylbiphenyl-3-yl)-4-hydroxy-8-(methoxymethyl)-1-azaspiro[4.5]dec-3-en-2-one] | 4.2 µM | 0.0036 | 0.109 | 0.0779 |  |  |  | 
5 | Cc1ccc(-c2ccc(Cl)c(F)c2)cc1C1=C(O)[C@]2(CC[C@](O)(C(F)(F)F)CC2)NC1=O [V.2-c, (5r,8r)-3-(4′-Chloro-3′-fluoro-4-methylbiphenyl-3-yl)-4,8-dihydroxy-8-(trifluoromethyl)-1-azaspiro[4.5]dec-3-en-2-one] | 1.38 µM |  |  |  |  |  |  | 
6 | CO[C@]1(C)CC[C@]2(CC1)NC(=O)C(c1cc(-c3ccc(Cl)cc3)ccc1C)=C2O [Example V.1-a, (5r,8r)-3-(4′-Chloro-4-methylbiphenyl-3-yl)-4-hydroxy-8-methoxy-8-methyl-1-azaspiro[4.5]dec-3-en-2-one] | 4.84 µM |  |  |  | 0.38% | 0.23% | 2.49% | 
7 | COC[C@H]1CC[C@]2(CC1)NC(=O)C(c1cc(-c3ccc(Cl)c(F)c3)ccc1C)=C2O [V.4-b, (5s,8s)-3-(4′-Chloro-3′-fluoro-4-methylbiphenyl-3-yl)-4-hydroxy-8-(methoxymethyl)-1-azaspiro[4.5]dec-3-en-2-one] | 3.64 µM | 0.0141 | 0.0176 | 0.0011 |  |  |  | 1
8 | COC[C@]1(OC)CC[C@@]2(CC1)NC(=O)C(c1cc(-c3ccc(Cl)cc3)ccc1C)=C2O [Example 1-3, (5r,8r)-3-(4′-Chloro-4-methylbiphenyl-3-yl)-4-hydroxy-8-methoxy-8-(methoxymethyl)-1-azaspiro[4.5]dec-3-en-2-one] | 4.8 µM | 0.0041 | 0.038 |  |  |  |  | 
9 | CO[C@]1(C)CC[C@]2(CC1)NC(=O)C(c1cc(-c3ccc(Cl)c(F)c3)ccc1C)=C2O [Example V.2-a, (5r,8r)-3-(4′-Chloro-3′-fluoro-4-methylbiphenyl-3-yl)-4-hydroxy-8-methoxy-8-methyl-1-azaspiro[4.5]dec-3-en-2-one] | 2.8 µM |  |  |  | 0.39% | 0.23% | 2.8% | 
10 | Cc1ccc(-c2ccc(Cl)cc2)cc1C1=C(O)[C@]2(CC[C@](O)(C(F)(F)F)CC2)NC1=O [V.1-c, (5r,8r)-3-(4′-Chloro-4-methylbiphenyl-3-yl)-4,8-dihydroxy-8-(trifluoromethyl)-1-azaspiro[4.5]dec-3-en-2-one] | 6.9 µM |  |  |  |  |  |  | 
